From ChEMBL document CHEMBL3991601, “The target landscape of clinical kinase drugs” (Science, 2017)
Activity calls are given as the source filed them. Rule as the data show it, for most assays here: actives have a measured Kd and inactives only a lower limit.
Also: in the data inactive means no Kd found up to 30 µM.

What follows are compounds tested against Atypical kinase COQ8A, mitochondrial (Homo sapiens, UniProt Q8NI60).
Sequence of Atypical kinase COQ8A, mitochondrial (Q8NI60 whole entry): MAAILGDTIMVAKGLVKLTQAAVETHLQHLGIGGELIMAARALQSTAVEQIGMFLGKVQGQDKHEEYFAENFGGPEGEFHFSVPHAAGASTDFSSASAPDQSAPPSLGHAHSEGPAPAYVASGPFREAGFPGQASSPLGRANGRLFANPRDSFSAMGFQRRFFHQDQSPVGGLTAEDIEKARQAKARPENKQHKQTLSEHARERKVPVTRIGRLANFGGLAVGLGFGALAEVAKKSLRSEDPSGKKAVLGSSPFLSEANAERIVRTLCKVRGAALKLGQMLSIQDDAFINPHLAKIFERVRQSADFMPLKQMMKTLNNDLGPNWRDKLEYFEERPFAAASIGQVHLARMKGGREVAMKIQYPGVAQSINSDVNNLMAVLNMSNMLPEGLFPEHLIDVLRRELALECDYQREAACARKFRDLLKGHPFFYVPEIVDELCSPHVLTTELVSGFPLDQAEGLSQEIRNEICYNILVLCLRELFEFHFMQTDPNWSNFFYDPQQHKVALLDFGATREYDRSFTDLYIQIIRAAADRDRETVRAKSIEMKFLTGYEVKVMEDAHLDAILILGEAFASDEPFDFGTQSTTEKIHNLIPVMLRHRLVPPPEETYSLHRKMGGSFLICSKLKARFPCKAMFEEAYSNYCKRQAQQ
In the case of `CC[C@H](Nc1ncnc2[nH]cnc12)c1nc2cccc(F)c2c(=O)n1-c1ccccc1` [IDELALISIB], the Kd is reported as > 30 µM (inactive). For `Cn1cc(-c2ccc3nnc(C(F)(F)c4ccc5ncccc5c4)n3n2)cn1` [JNJ-38877605], the Kd was > 30 µM (inactive).

Each compound was assayed against Deoxycytidine kinase (Homo sapiens, UniProt P27707).
Sequence of Deoxycytidine kinase (P27707 whole entry): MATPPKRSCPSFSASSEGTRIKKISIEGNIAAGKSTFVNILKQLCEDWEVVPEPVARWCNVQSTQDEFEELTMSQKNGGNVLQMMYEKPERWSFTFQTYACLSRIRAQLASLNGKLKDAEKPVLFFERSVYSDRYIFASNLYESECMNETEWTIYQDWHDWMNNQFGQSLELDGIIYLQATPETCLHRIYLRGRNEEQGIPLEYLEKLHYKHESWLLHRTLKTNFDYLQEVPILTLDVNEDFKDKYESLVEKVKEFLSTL
For `CC[C@H](Nc1ncnc2[nH]cnc12)c1nc2cccc(F)c2c(=O)n1-c1ccccc1` [IDELALISIB], the Kd was > 30 µM (inactive). With `Cn1cc(-c2ccc3nnc(C(F)(F)c4ccc5ncccc5c4)n3n2)cn1` [JNJ-38877605] the Kd was > 30 µM (inactive).

Each compound was assayed against ATP-dependent RNA helicase DDX3X (Homo sapiens, UniProt O00571).
Sequence of ATP-dependent RNA helicase DDX3X (O00571 whole entry): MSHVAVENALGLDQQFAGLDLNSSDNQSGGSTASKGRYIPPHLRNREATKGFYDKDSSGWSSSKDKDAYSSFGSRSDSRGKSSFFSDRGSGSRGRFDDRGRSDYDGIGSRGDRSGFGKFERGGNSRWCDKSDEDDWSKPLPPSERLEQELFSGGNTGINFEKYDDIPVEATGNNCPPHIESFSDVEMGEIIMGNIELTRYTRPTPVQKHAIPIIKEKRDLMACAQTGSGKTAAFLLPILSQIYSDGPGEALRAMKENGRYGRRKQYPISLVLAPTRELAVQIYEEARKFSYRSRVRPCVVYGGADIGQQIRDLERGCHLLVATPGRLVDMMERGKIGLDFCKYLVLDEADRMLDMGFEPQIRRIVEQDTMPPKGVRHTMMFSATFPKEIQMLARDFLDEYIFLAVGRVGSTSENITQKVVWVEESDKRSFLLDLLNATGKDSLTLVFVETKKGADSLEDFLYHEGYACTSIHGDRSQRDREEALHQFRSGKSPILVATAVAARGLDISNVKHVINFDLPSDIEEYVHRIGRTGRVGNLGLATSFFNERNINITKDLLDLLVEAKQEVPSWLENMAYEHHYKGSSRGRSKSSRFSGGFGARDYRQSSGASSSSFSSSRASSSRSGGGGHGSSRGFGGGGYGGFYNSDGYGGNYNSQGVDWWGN
`CC[C@H](Nc1ncnc2[nH]cnc12)c1nc2cccc(F)c2c(=O)n1-c1ccccc1` [IDELALISIB] was tested, and the Kd was > 30 µM (inactive). `Cn1cc(-c2ccc3nnc(C(F)(F)c4ccc5ncccc5c4)n3n2)cn1` [JNJ-38877605] was tested, and the Kd was > 30 µM (inactive).

What follows are compounds tested against Tyrosine-protein kinase Fer (Homo sapiens, UniProt P16591).
Sequence of Tyrosine-protein kinase Fer (P16591 whole entry): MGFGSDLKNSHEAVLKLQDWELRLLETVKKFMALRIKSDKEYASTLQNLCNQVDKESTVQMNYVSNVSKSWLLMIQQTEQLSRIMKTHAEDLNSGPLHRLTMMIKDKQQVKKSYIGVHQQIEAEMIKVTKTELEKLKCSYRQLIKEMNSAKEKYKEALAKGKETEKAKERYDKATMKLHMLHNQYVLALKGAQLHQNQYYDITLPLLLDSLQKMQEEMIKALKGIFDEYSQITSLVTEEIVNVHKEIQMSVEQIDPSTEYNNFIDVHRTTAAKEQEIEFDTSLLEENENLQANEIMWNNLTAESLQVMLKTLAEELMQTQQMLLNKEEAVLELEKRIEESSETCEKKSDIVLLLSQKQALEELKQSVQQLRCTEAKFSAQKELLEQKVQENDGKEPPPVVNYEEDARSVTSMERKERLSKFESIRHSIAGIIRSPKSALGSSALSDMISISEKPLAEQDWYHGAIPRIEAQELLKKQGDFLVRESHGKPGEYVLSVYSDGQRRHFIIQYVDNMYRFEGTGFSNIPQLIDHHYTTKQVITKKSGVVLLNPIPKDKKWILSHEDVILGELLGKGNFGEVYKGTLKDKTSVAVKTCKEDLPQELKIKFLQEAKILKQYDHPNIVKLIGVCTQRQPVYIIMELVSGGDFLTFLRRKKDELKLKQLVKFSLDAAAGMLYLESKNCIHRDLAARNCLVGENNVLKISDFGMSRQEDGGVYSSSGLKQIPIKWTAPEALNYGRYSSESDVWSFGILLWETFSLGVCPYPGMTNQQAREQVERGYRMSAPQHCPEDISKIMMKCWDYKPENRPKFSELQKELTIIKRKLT
In the case of `CC[C@H](Nc1ncnc2[nH]cnc12)c1nc2cccc(F)c2c(=O)n1-c1ccccc1` [IDELALISIB], the Kd is reported as > 30 µM (inactive). `Cn1cc(-c2ccc3nnc(C(F)(F)c4ccc5ncccc5c4)n3n2)cn1` [JNJ-38877605] was tested, and the Kd was > 30 µM (inactive).

What follows are compounds tested against Tyrosine-protein kinase Lyn (Homo sapiens, UniProt P07948).
With `CC[C@H](Nc1ncnc2[nH]cnc12)c1nc2cccc(F)c2c(=O)n1-c1ccccc1` [IDELALISIB] the Kd was > 30 µM (inactive). For `Cn1cc(-c2ccc3nnc(C(F)(F)c4ccc5ncccc5c4)n3n2)cn1` [JNJ-38877605], the Kd was > 30 µM (inactive).

The compounds below were run against Mitogen-activated protein kinase kinase kinase 1 (Homo sapiens, UniProt Q13233).
`CC[C@H](Nc1ncnc2[nH]cnc12)c1nc2cccc(F)c2c(=O)n1-c1ccccc1` [IDELALISIB] was tested, and the Kd was > 30 µM (inactive). `Cn1cc(-c2ccc3nnc(C(F)(F)c4ccc5ncccc5c4)n3n2)cn1` [JNJ-38877605] was tested, and the Kd was > 30 µM (inactive).

These compounds were tested against T1, Mitogen-activated protein kinase kinase kinase 2 (Homo sapiens, UniProt Q9Y2U5).
T1 sequence (Q9Y2U5 whole entry): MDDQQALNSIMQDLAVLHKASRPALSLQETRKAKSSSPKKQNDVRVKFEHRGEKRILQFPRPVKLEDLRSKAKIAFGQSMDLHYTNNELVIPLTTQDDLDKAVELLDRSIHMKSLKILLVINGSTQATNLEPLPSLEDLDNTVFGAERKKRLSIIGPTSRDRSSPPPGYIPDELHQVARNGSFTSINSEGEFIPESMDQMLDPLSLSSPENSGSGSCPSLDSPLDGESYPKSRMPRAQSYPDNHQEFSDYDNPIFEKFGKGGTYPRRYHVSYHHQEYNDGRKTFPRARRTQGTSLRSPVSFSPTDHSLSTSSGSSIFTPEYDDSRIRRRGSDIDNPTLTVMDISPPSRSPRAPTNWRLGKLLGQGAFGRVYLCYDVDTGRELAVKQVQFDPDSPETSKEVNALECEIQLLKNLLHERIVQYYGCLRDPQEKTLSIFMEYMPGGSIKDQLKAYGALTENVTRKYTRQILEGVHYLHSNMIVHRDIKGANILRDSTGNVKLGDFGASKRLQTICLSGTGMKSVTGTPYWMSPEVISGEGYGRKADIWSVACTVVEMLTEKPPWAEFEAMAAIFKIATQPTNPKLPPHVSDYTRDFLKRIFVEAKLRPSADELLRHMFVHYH
In the case of `CC[C@H](Nc1ncnc2[nH]cnc12)c1nc2cccc(F)c2c(=O)n1-c1ccccc1` [IDELALISIB], the Kd is reported as > 30 µM (inactive). `Cn1cc(-c2ccc3nnc(C(F)(F)c4ccc5ncccc5c4)n3n2)cn1` [JNJ-38877605] was tested, and the Kd was > 30 µM (inactive).

The compounds below were run against MAP kinase-activated protein kinase 2 (Homo sapiens, UniProt P49137).
Sequence of MAP kinase-activated protein kinase 2 (P49137 whole entry): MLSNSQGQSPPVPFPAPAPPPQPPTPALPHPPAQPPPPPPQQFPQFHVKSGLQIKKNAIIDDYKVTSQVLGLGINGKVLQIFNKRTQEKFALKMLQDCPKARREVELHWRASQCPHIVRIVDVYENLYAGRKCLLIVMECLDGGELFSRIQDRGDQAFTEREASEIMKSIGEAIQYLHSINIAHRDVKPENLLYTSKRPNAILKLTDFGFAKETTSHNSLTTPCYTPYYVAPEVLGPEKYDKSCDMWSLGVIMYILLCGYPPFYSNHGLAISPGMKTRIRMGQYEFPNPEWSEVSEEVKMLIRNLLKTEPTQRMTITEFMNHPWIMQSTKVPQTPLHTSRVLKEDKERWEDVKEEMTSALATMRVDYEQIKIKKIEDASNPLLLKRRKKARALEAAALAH
For `CC[C@H](Nc1ncnc2[nH]cnc12)c1nc2cccc(F)c2c(=O)n1-c1ccccc1` [IDELALISIB], the Kd was > 30 µM (inactive). In the case of `Cn1cc(-c2ccc3nnc(C(F)(F)c4ccc5ncccc5c4)n3n2)cn1` [JNJ-38877605], the Kd is reported as > 30 µM (inactive).

Each compound was assayed against T2, ATP-dependent 6-phosphofructokinase, platelet type (Homo sapiens, UniProt Q01813).
T2 sequence (Q01813 whole entry): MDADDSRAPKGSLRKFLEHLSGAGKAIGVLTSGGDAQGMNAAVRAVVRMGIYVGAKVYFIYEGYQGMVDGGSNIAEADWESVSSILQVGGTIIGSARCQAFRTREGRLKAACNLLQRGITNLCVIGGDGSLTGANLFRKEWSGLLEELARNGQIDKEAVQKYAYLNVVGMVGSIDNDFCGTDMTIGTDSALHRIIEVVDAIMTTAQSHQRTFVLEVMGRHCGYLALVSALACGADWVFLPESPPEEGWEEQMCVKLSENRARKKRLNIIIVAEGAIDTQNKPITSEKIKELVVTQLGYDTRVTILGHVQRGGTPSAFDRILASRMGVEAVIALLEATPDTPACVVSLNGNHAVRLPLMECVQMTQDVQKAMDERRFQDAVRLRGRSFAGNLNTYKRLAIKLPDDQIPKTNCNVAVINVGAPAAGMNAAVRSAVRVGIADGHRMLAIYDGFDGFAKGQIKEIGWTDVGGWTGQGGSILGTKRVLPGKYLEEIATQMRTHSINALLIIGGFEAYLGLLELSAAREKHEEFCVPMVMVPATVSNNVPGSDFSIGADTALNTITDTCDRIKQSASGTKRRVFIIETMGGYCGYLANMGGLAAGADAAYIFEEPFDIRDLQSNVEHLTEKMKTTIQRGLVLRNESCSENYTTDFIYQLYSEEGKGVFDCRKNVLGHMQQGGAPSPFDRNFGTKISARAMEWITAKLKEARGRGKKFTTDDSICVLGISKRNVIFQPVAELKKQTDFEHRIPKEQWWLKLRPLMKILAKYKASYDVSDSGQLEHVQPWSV
`CC[C@H](Nc1ncnc2[nH]cnc12)c1nc2cccc(F)c2c(=O)n1-c1ccccc1` [IDELALISIB] was tested, and the Kd was > 30 µM (inactive). In the case of `Cn1cc(-c2ccc3nnc(C(F)(F)c4ccc5ncccc5c4)n3n2)cn1` [JNJ-38877605], the Kd is reported as > 30 µM (inactive).

What follows are compounds tested against Ribosomal protein S6 kinase alpha-4 (Homo sapiens, UniProt O75676).
Sequence of Ribosomal protein S6 kinase alpha-4 (O75676 whole entry): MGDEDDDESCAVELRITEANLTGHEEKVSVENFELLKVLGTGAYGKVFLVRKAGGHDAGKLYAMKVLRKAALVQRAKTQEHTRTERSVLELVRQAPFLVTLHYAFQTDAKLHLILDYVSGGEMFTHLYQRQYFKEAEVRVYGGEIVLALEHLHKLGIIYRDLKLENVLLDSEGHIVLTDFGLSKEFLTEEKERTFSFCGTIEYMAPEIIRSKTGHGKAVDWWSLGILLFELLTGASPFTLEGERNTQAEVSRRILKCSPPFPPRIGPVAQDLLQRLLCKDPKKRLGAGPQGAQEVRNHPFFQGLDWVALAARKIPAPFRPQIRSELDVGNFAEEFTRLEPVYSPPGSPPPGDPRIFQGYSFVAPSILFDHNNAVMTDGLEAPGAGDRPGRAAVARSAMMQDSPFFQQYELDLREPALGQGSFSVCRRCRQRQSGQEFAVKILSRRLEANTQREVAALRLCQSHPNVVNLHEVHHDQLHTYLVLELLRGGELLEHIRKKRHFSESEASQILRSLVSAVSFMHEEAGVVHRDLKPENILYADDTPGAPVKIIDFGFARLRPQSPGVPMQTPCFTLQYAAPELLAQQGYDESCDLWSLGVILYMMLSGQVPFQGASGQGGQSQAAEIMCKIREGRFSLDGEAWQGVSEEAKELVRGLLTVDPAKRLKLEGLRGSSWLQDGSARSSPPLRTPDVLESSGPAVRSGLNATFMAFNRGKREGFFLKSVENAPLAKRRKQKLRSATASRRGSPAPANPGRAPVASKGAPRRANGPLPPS
With `CC[C@H](Nc1ncnc2[nH]cnc12)c1nc2cccc(F)c2c(=O)n1-c1ccccc1` [IDELALISIB] the Kd was > 30 µM (inactive). In the case of `Cn1cc(-c2ccc3nnc(C(F)(F)c4ccc5ncccc5c4)n3n2)cn1` [JNJ-38877605], the Kd is reported as > 30 µM (inactive).

The compounds below were run against STE20-like serine/threonine-protein kinase (Homo sapiens, UniProt Q9H2G2).
`CC[C@H](Nc1ncnc2[nH]cnc12)c1nc2cccc(F)c2c(=O)n1-c1ccccc1` [IDELALISIB] was tested, and the Kd was > 30 µM (inactive). For `Cn1cc(-c2ccc3nnc(C(F)(F)c4ccc5ncccc5c4)n3n2)cn1` [JNJ-38877605], the Kd was > 30 µM (inactive).

The compounds below were run against T3, Serine/threonine-protein kinase TAO1 (Homo sapiens, UniProt Q7L7X3).
T3 sequence (Q7L7X3 whole entry): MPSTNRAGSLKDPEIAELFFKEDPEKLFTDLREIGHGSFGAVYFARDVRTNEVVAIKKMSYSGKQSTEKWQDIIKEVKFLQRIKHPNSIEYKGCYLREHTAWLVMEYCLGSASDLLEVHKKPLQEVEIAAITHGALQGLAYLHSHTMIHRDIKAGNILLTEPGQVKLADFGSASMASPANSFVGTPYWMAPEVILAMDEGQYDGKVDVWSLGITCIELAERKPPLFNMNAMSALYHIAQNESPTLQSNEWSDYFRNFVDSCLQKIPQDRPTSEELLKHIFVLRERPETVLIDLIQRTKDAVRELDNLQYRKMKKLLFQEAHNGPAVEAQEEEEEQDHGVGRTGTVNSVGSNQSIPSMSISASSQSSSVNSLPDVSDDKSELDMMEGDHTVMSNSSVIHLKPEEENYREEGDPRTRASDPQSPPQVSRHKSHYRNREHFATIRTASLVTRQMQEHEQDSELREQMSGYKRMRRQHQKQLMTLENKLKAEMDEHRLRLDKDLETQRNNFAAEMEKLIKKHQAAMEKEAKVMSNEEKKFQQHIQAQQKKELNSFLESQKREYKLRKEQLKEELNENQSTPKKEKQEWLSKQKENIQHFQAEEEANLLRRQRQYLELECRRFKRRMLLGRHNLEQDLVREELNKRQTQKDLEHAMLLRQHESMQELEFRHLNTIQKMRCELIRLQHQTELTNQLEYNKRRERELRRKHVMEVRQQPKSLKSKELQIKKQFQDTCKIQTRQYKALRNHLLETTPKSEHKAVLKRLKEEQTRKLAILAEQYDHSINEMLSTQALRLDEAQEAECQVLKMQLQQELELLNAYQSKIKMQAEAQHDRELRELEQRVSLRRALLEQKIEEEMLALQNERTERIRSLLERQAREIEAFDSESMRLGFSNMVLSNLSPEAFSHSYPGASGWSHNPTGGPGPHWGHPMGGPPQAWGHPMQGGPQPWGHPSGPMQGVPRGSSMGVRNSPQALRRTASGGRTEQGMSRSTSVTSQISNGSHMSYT
With `CC[C@H](Nc1ncnc2[nH]cnc12)c1nc2cccc(F)c2c(=O)n1-c1ccccc1` [IDELALISIB] the Kd was > 30 µM (inactive). With `Cn1cc(-c2ccc3nnc(C(F)(F)c4ccc5ncccc5c4)n3n2)cn1` [JNJ-38877605] the Kd was > 30 µM (inactive).

Each compound was assayed against Non-receptor tyrosine-protein kinase TYK2 (Homo sapiens, UniProt P29597).
Sequence of Non-receptor tyrosine-protein kinase TYK2 (P29597 whole entry): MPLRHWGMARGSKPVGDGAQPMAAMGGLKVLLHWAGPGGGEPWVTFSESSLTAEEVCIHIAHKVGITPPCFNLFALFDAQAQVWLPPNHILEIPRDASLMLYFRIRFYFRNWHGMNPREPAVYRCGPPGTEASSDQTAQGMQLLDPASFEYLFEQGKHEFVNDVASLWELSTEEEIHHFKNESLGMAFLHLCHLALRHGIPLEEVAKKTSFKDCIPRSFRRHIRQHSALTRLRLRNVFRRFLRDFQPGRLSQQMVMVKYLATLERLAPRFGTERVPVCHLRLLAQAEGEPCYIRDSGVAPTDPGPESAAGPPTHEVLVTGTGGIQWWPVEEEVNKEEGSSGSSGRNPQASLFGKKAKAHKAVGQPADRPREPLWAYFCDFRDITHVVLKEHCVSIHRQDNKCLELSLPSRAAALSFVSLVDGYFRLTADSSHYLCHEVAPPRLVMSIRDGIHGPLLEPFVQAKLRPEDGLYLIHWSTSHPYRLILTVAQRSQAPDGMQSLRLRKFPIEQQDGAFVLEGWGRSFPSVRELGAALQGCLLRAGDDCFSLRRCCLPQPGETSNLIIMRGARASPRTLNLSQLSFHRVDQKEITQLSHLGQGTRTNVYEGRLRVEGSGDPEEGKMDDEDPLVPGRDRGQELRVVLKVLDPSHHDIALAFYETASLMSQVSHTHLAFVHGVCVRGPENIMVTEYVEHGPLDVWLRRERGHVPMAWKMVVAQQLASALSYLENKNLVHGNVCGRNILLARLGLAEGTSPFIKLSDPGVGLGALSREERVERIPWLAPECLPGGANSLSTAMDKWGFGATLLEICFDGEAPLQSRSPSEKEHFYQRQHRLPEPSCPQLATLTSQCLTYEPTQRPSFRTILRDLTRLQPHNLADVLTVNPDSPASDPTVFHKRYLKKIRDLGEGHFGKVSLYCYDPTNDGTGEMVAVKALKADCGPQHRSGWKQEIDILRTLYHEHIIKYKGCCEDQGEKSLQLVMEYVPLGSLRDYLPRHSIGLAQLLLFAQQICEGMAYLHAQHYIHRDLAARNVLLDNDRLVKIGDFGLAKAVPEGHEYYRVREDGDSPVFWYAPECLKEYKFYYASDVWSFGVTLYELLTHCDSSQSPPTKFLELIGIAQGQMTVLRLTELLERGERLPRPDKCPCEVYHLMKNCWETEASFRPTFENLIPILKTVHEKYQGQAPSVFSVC
In the case of `CC[C@H](Nc1ncnc2[nH]cnc12)c1nc2cccc(F)c2c(=O)n1-c1ccccc1` [IDELALISIB], the Kd is reported as > 30 µM (inactive). For `Cn1cc(-c2ccc3nnc(C(F)(F)c4ccc5ncccc5c4)n3n2)cn1` [JNJ-38877605], the Kd was > 30 µM (inactive).
